Results as given in ChEMBL document CHEMBL3351531, “Scaffold hopping of sampangine: discovery of potent antifungal lead compound against Aspergillus fumigatus and Cryptococcus neoformans” (Bioorg Med Chem Lett, 2014).
≈ marks a conversion by molar mass, not a printed value.

How the values were obtained:
Candida parapsilosis = assay: Antifungal activity against Candida parapsilosis after 24 hrs by serial dilution method; assay type: functional; details: Lodderomyces parapsilosis
Aspergillus fumigatus = assay: Antifungal activity against Aspergillus fumigatus after 7 days by serial dilution method; assay type: functional; details: 168 h
Cryptococcus neoformans = assay: Antifungal activity against Cryptococcus neoformans after 72 hrs by serial dilution method; assay type: functional
Candida albicans = assay: Antifungal activity against Candida albicans after 24 hrs by serial dilution method; assay type: functional
Nakaseomyces glabratus = assay: Antifungal activity against Candida glabrata after 24 hrs by serial dilution method; assay type: functional
Trichophyton rubrum = assay: Antifungal activity against Trichophyton rubrum by serial dilution method; assay type: functional
Nannizzia gypsea = assay: Antifungal activity against Microsporum gypseum by serial dilution method; assay type: functional
[1] = Kinetic solubility of the compound in PBS buffer at pH 7.4; assay type: physicochemical; details: read-out: Kinetic_solubility

Q: Which MIC80 (Candida parapsilosis) does the source give for `CC1(C)CC2=C(O1)C(=O)c1nccc3ccnc2c13` here?
A: > 64 µg/mL

Q: What about the MIC80 (Aspergillus fumigatus) of the same compound?
A: 1 µg/mL (≈ 3.96 µM)

Q: What about the MIC80 (Cryptococcus neoformans) of the same compound?
A: 2 µg/mL (≈ 7.93 µM)

Q: And the MIC80 (Candida albicans)?
A: > 64 µg/mL

Q: What about the MIC80 (Nakaseomyces glabratus) of the same compound?
A: 0.125 µg/mL (≈ 0.495 µM)

Q: And the MIC80 (Trichophyton rubrum)?
A: 8 µg/mL (≈ 31.7 µM)

Q: What about the MIC80 (Nannizzia gypsea) of the same compound?
A: > 64 µg/mL

Q: What about the solubility kinetic [1] of the same compound?
A: 27 µg/mL (≈ 107 µM)

Q: Which results are given for `O=C1c2ccsc2-c2nccc3ccnc1c23`?
A: MIC80 (Candida parapsilosis): 8 µg/mL (≈ 33.6 µM); MIC80 (Aspergillus fumigatus): 1 µg/mL (≈ 4.2 µM); MIC80 (Cryptococcus neoformans): 0.25 µg/mL (≈ 1.05 µM); MIC80 (Candida albicans): 4 µg/mL (≈ 16.8 µM); MIC80 (Nakaseomyces glabratus): 4 µg/mL (≈ 16.8 µM); MIC80 (Trichophyton rubrum): 2 µg/mL (≈ 8.39 µM); MIC80 (Nannizzia gypsea): 2 µg/mL (≈ 8.39 µM); solubility kinetic [1]: 48 µg/mL (≈ 201 µM)

Q: Which results are given for `Cn1cc2c(c1)-c1nccc3ccnc(c13)C2=O`?
A: MIC80 (Candida parapsilosis): > 64 µg/mL; MIC80 (Aspergillus fumigatus): > 64 µg/mL; MIC80 (Cryptococcus neoformans): > 64 µg/mL; MIC80 (Candida albicans): > 64 µg/mL; MIC80 (Nakaseomyces glabratus): > 64 µg/mL; MIC80 (Trichophyton rubrum): > 64 µg/mL; MIC80 (Nannizzia gypsea): > 64 µg/mL; solubility kinetic [1]: 17 µg/mL (≈ 72.3 µM)

Q: What does the source list for `O=C1c2occc2-c2nccc3ccnc1c23`?
A: MIC80 (Candida parapsilosis): > 64 µg/mL; MIC80 (Aspergillus fumigatus): 32 µg/mL (≈ 144 µM); MIC80 (Cryptococcus neoformans): 16 µg/mL (≈ 72 µM); MIC80 (Candida albicans): 32 µg/mL (≈ 144 µM); MIC80 (Nakaseomyces glabratus): 32 µg/mL (≈ 144 µM); MIC80 (Trichophyton rubrum): 8 µg/mL (≈ 36 µM); MIC80 (Nannizzia gypsea): 16 µg/mL (≈ 72 µM)

Q: With `O=C1c2ccoc2-c2nccc3ccnc1c23` as the compound, how does the MIC80 (Candida parapsilosis) read?
A: > 64 µg/mL

Q: And the MIC80 (Aspergillus fumigatus)?
A: 32 µg/mL (≈ 144 µM)

Q: What about the MIC80 (Cryptococcus neoformans) of the same compound?
A: 8 µg/mL (≈ 36 µM)

Q: And the MIC80 (Candida albicans)?
A: 32 µg/mL (≈ 144 µM)

Q: What about the MIC80 (Nakaseomyces glabratus) of the same compound?
A: 64 µg/mL (≈ 288 µM)

Q: And the MIC80 (Trichophyton rubrum)?
A: 8 µg/mL (≈ 36 µM)

Q: And the MIC80 (Nannizzia gypsea)?
A: 16 µg/mL (≈ 72 µM)

Q: What does the source list for `Cn1ccc2c1C(=O)c1nccc3ccnc-2c13`?
A: MIC80 (Candida parapsilosis): > 64 µg/mL; MIC80 (Aspergillus fumigatus): 64 µg/mL (≈ 272 µM); MIC80 (Cryptococcus neoformans): 8 µg/mL (≈ 34 µM); MIC80 (Candida albicans): 64 µg/mL (≈ 272 µM); MIC80 (Nakaseomyces glabratus): 32 µg/mL (≈ 136 µM); MIC80 (Trichophyton rubrum): 16 µg/mL (≈ 68 µM); MIC80 (Nannizzia gypsea): > 64 µg/mL; solubility kinetic [1]: 22 µg/mL (≈ 93.5 µM)

Q: For `O=C1c2cc(Br)sc2-c2nccc3ccnc1c23`, which MIC80 (Candida parapsilosis) is on record?
A: 64 µg/mL (≈ 202 µM)

Q: And the MIC80 (Aspergillus fumigatus)?
A: 4 µg/mL (≈ 12.6 µM)

Q: What about the MIC80 (Cryptococcus neoformans) of the same compound?
A: 4 µg/mL (≈ 12.6 µM)

Q: And the MIC80 (Candida albicans)?
A: 8 µg/mL (≈ 25.2 µM)

Q: What about the MIC80 (Nakaseomyces glabratus) of the same compound?
A: 4 µg/mL (≈ 12.6 µM)

Q: What about the MIC80 (Trichophyton rubrum) of the same compound?
A: 2 µg/mL (≈ 6.31 µM)

Q: What about the MIC80 (Nannizzia gypsea) of the same compound?
A: 1 µg/mL (≈ 3.15 µM)

Q: What does the source list for `O=C1c2ccsc2-c2nccc3c(Br)cnc1c23`?
A: MIC80 (Candida parapsilosis): 16 µg/mL (≈ 50.4 µM); MIC80 (Aspergillus fumigatus): 8 µg/mL (≈ 25.2 µM); MIC80 (Cryptococcus neoformans): 4 µg/mL (≈ 12.6 µM); MIC80 (Candida albicans): 4 µg/mL (≈ 12.6 µM); MIC80 (Nakaseomyces glabratus): 4 µg/mL (≈ 12.6 µM); MIC80 (Trichophyton rubrum): 2 µg/mL (≈ 6.31 µM); MIC80 (Nannizzia gypsea): 0.5 µg/mL (≈ 1.58 µM)

Q: Which MIC80 (Candida parapsilosis) does the source give for `O=C1c2ccsc2-c2nccc3c(Cl)cnc1c23` here?
A: > 64 µg/mL

Q: What about the MIC80 (Aspergillus fumigatus) of the same compound?
A: 2 µg/mL (≈ 7.33 µM)

Q: And the MIC80 (Cryptococcus neoformans)?
A: 0.5 µg/mL (≈ 1.83 µM)

Q: And the MIC80 (Candida albicans)?
A: 32 µg/mL (≈ 117 µM)

Q: What about the MIC80 (Nakaseomyces glabratus) of the same compound?
A: 0.5 µg/mL (≈ 1.83 µM)

Q: And the MIC80 (Trichophyton rubrum)?
A: 2 µg/mL (≈ 7.33 µM)

Q: And the MIC80 (Nannizzia gypsea)?
A: 0.125 µg/mL (≈ 0.458 µM)

Q: Which MIC80 (Candida parapsilosis) does the source give for `O=C1c2cc(Cl)sc2-c2nccc3c(Cl)cnc1c23` here?
A: > 64 µg/mL

Q: What about the MIC80 (Aspergillus fumigatus) of the same compound?
A: > 64 µg/mL

Q: And the MIC80 (Cryptococcus neoformans)?
A: > 64 µg/mL

Q: And the MIC80 (Candida albicans)?
A: 32 µg/mL (≈ 104 µM)

Q: What about the MIC80 (Nakaseomyces glabratus) of the same compound?
A: > 64 µg/mL

Q: And the MIC80 (Trichophyton rubrum)?
A: > 64 µg/mL

Q: What about the MIC80 (Nannizzia gypsea) of the same compound?
A: 8 µg/mL (≈ 26 µM)

Q: Which MIC80 (Candida parapsilosis) does the source give for `CN1CCN(c2cnc3c4c(nccc24)-c2sccc2C3=O)CC1` here?
A: > 64 µg/mL

Q: What about the MIC80 (Aspergillus fumigatus) of the same compound?
A: > 64 µg/mL

Q: What about the MIC80 (Cryptococcus neoformans) of the same compound?
A: 64 µg/mL (≈ 190 µM)

Q: What about the MIC80 (Candida albicans) of the same compound?
A: > 64 µg/mL

Q: And the MIC80 (Nakaseomyces glabratus)?
A: 64 µg/mL (≈ 190 µM)

Q: And the MIC80 (Trichophyton rubrum)?
A: > 64 µg/mL

Q: And the MIC80 (Nannizzia gypsea)?
A: > 64 µg/mL

Q: What does the source list for `COc1cnc2c3c(nccc13)-c1sccc1C2=O`?
A: MIC80 (Candida parapsilosis): > 64 µg/mL; MIC80 (Aspergillus fumigatus): > 64 µg/mL; MIC80 (Cryptococcus neoformans): > 64 µg/mL; MIC80 (Candida albicans): > 64 µg/mL; MIC80 (Nakaseomyces glabratus): > 64 µg/mL; MIC80 (Trichophyton rubrum): > 64 µg/mL; MIC80 (Nannizzia gypsea): > 64 µg/mL

Q: With `O=C1c2ccsc2-c2nc(-c3ccccc3)cc3ccnc1c23` as the compound, how does the MIC80 (Candida parapsilosis) read?
A: > 64 µg/mL

Q: What about the MIC80 (Aspergillus fumigatus) of the same compound?
A: > 64 µg/mL

Q: What about the MIC80 (Cryptococcus neoformans) of the same compound?
A: 4 µg/mL (≈ 12.7 µM)

Q: What about the MIC80 (Candida albicans) of the same compound?
A: 32 µg/mL (≈ 102 µM)

Q: And the MIC80 (Nakaseomyces glabratus)?
A: > 64 µg/mL

Q: And the MIC80 (Trichophyton rubrum)?
A: 16 µg/mL (≈ 50.9 µM)

Q: And the MIC80 (Nannizzia gypsea)?
A: > 64 µg/mL

Q: For `O=C1c2ccsc2-c2nc(-c3cccnc3)cc3ccnc1c23`, which MIC80 (Candida parapsilosis) is on record?
A: > 64 µg/mL

Q: What about the MIC80 (Aspergillus fumigatus) of the same compound?
A: > 64 µg/mL

Q: What about the MIC80 (Cryptococcus neoformans) of the same compound?
A: 32 µg/mL (≈ 101 µM)

Q: What about the MIC80 (Candida albicans) of the same compound?
A: 32 µg/mL (≈ 101 µM)

Q: And the MIC80 (Nakaseomyces glabratus)?
A: > 64 µg/mL

Q: What about the MIC80 (Trichophyton rubrum) of the same compound?
A: > 64 µg/mL

Q: What about the MIC80 (Nannizzia gypsea) of the same compound?
A: 32 µg/mL (≈ 101 µM)

Q: What does the source list for `Cc1ccccc1-c1cc2ccnc3c2c(n1)-c1sccc1C3=O`?
A: MIC80 (Candida parapsilosis): > 64 µg/mL; MIC80 (Aspergillus fumigatus): > 64 µg/mL; MIC80 (Cryptococcus neoformans): > 64 µg/mL; MIC80 (Candida albicans): 32 µg/mL (≈ 97.4 µM); MIC80 (Nakaseomyces glabratus): > 64 µg/mL; MIC80 (Trichophyton rubrum): 32 µg/mL (≈ 97.4 µM); MIC80 (Nannizzia gypsea): > 64 µg/mL

Q: Which results are given for `CC(=O)Nc1ccc(-c2cc3ccnc4c3c(n2)-c2sccc2C4=O)cc1`?
A: MIC80 (Candida parapsilosis): > 64 µg/mL; MIC80 (Aspergillus fumigatus): > 64 µg/mL; MIC80 (Cryptococcus neoformans): > 64 µg/mL; MIC80 (Candida albicans): 32 µg/mL (≈ 86.2 µM); MIC80 (Nakaseomyces glabratus): > 64 µg/mL; MIC80 (Trichophyton rubrum): > 64 µg/mL; MIC80 (Nannizzia gypsea): > 64 µg/mL

Q: With `OC(Cn1cncn1)(Cn1cncn1)c1ccc(F)cc1F` [FLUCONAZOLE] as the compound, how does the MIC80 (Candida parapsilosis) read?
A: 1 µg/mL (≈ 3.27 µM)

Q: And the MIC80 (Aspergillus fumigatus)?
A: > 64 µg/mL

Q: What about the MIC80 (Cryptococcus neoformans) of the same compound?
A: 0.25 µg/mL (≈ 0.816 µM)

Q: And the MIC80 (Candida albicans)?
A: 0.5 µg/mL (≈ 1.63 µM)

Q: And the MIC80 (Nakaseomyces glabratus)?
A: 0.25 µg/mL (≈ 0.816 µM)

Q: And the MIC80 (Trichophyton rubrum)?
A: 0.5 µg/mL (≈ 1.63 µM)

Q: What about the MIC80 (Nannizzia gypsea) of the same compound?
A: 16 µg/mL (≈ 52.2 µM)

Q: For `O=C1c2ccccc2-c2nccc3ccnc1c23` [SAMPANGINE], which MIC80 (Candida parapsilosis) is on record?
A: 4 µg/mL (≈ 17.2 µM)

Q: And the MIC80 (Aspergillus fumigatus)?
A: 16 µg/mL (≈ 68.9 µM)

Q: What about the MIC80 (Cryptococcus neoformans) of the same compound?
A: 2 µg/mL (≈ 8.61 µM)

Q: What about the MIC80 (Candida albicans) of the same compound?
A: 0.5 µg/mL (≈ 2.15 µM)

Q: What about the MIC80 (Nakaseomyces glabratus) of the same compound?
A: 0.125 µg/mL (≈ 0.538 µM)

Q: And the MIC80 (Trichophyton rubrum)?
A: 16 µg/mL (≈ 68.9 µM)

Q: What about the MIC80 (Nannizzia gypsea) of the same compound?
A: > 64 µg/mL

Q: What about the solubility kinetic [1] of the same compound?
A: 12.6 µg/mL (≈ 54.3 µM)
